Measurements published in patent publication US20230340027A1, “UBIQUITIN HIGH AFFINITY PEPTIDES, AND METHODS OF USING SAME, AND IDENTIFYING SAME” (TECHNION RESEARCH & DEVELOPMENT FOUNDATION LIMITED, priority 2020, published 2023).
Starred links: 1 amine or outer side, 2 acyl side, 3 side chain; linkers in the order of their positions; H or OH if unused. Positions of bridges follow the written chain, without caps; N, C: chain ends. Non-standard residues stand in square brackets, D forms with d. Residues, ends and D or L forms follow the SMILES beside them. Chains are numbered I, II in the order given. No end group written: not given here. *: point of attachment. Fluorescein(5-Mal) = O=C1OC2(c3ccc(O)cc3Oc3cc(O)ccc32)c2ccc(N3C(=O)CC(*)C3=O)cc21; CH2 = C([*:1])[*:2]

Experiments:
biotin-tetra-UbK48 = biological target: T1, biotin-tetra-UbK48 (Homo sapiens, UniProt P0CG47); assay: Fluorescence-based competitive assay for peptide screening (relative binding vs Ub4_ix); conditions: 5 molar equiv unlabeled peptide, competition with Ub4_ix-FITC; fluorescence inversely proportional to affinity
T1 construct: a Ub polymer comprises Ub monomers linked to one another at lysine (Lys) residue at position 48 (K48); made in house; host or cells: total chemical synthesis (no expression host)
Method: Streptavidin-coated microplate (96 well plate) was washed (3×100 μl) with HEPES buffer. Then, 1 μg of biotin-tetra-UbK48 in 100 μl of HEPES buffer was incubated in each well for 30 minutes at room temperature (RT). Additional wells were kept free of biotin-tetra-UbK48 for subsequent blank subtraction. Following a washing step, unlabeled candidate peptides, including peptide-standard (Ub4_ix), were incubated in an excess amount (5 molar equiv. relative to biotin-tetra-UbK48) for 30 minutes at RT to saturate binding to the target. […] Finally, following washing, each well was treated with 100 μl of 6 M Gn·HCl at RT for 30 minutes to release the bound peptides. Then, the solution with the released peptides was transferred to Nunc black 96-well plate and fluorescence was measured (λ excitation=480 nm and λ emission=525 nm). The obtained values were then normalized, and compared with peptide standard, while the fluorescence signal was inversely proportional to the binding affinity of the peptide. The calculations of relative change in binding were performed according to the formula: Y=−[1−(a/b)]×100, where Y is the change in the signal relative to the standard Ub4_ix (in percentage); a is signal measured for each peptide variant (in relative fluorescence units); b is signal measured for Ub4_ix.
The inventors envisioned a screening strategy to proceed through four main steps, each terminated by washings with binding buffer. First, biotin tagged tetra-UbK48 was immobilized in a constant amount (1 μg per well) in streptavidin covered 96 well plate (FIG. 1(i and ii)). Then, unlabeled candidate peptides were incubated in excess in each well to saturate binding to the target. […] Finally, the bound peptides were released from wells by treatment with 6 M guanidine hydrochloride (Gn·HCl) solution followed by measuring the gained fluorescence (FIG. 1(i)). The obtained values were then compared to the fluorescence of the control well containing the unlabeled peptide to calculate relative binding. The gained fluorescence was inversely proportional to the binding affinity of the peptide candidate. […]

HeLa cells [1] = assay: Flow cytometry annexin V-FITC/PI apoptosis / viability assay; type: cell-based
Method: Induction of apoptosis in Hela cell lines by treatment with cyclic peptides was determined using annexin V-FITC/propidium iodide(PI) apoptosis detection kit (BD Biosciences) according to the manufacturer's protocol. 2×10^5 cells/well were treated with inhibitors for 24- and 48-hours in a dose dependent manner. Apoptotic cells were determined as annexin V-FITC positive and PI negative. DMSO and MG132 were used as negative and positive controls respectively. Samples were acquired on a Becton Dickinson LSR II flow cytometer (BD Biosciences) and analyzed using Flowjo software.

tetra-Ub K48 = biological target: T2, tetra-Ub K48 (Homo sapiens, UniProt P0CG47); assay: Kd determination of FITC-labeled peptides on immobilized biotin-tetra-UbK48 (fluorescence binding curve); conditions: FITC-labeled peptide, tetra-Ub K48, one site non-cooperative binding model, triplicates; read-out: dissociation constant (Kd)
T2 construct: a Ub polymer comprises Ub monomers linked to one another at lysine (Lys) residue at position 48 (K48); made in house; host or cells: total chemical synthesis (no expression host)
Method: (1C) The bound peptides are released using Guanidinium-HCl (Gn·HCl) and the fluorescence intensity is measured. (1ii) A non-limiting schematic representation for measuring the dissociation constant (Kd) of FITC-labeled peptide with different concentrations. (1D) A FITC-labeled cyclic peptide with different concentrations are introduced in different wells for binding to the biotin-tetra Ub. (1E) Washing out the unbounded labeled cyclic peptide. (1F) The bound peptides are released using Gn·HCl and the fluorescence intensity is measured. […] All measurements were performed in triplicates.
To determine the dissociation constant (Kd) of labeled peptides, following immobilization step of biotin-tetra-UbK48, different concentrations of the labeled peptide were incubated. Then, the bound cyclic peptides were released with 6 M Gn·HCl, followed by fluorescence measurement (λex=480 nm and λem=525 nm). […]
First, biotin tagged tetra-UbK48 was immobilized in a constant amount (1 μg per well) in streptavidin covered 96 well plate (FIG. 1(i and ii)). […] Finally, the bound peptides were released from wells by treatment with 6 M guanidine hydrochloride (Gn·HCl) solution followed by measuring the gained fluorescence (FIG. 1(i)). The obtained values were then compared to the fluorescence of the control well containing the unlabeled peptide to calculate relative binding. […]

HeLa cells [2] = assay: Peptide cell uptake, live-cell confocal microscopy; type: cell-based; conditions: 1 μM, 2 hours, confocal microscope, FITC signal
Method: HeLa cells (CCL-2™) were purchased from ATCC®. Dulbecco's modified Eagle's medium (DMEM), Eagle's minimum essential medium (EMEM), Fetal bovine serum (FBS), L-Glutamine, antibiotics (penicillin/streptomycin), trypsin/EDTA and phosphate-buffered saline (PBS) were purchased from biological industries. Hoechst 33342 solution (20 mM), SYTOX blue (5 mM) and Lysotracker probes were purchased from Thermo-fisher. μ-Slide 8 well ibiTreat for live-cell confocal microscopy was purchased from ibidi and polylysine hydrobromide was purchased from Sigma. Distribution of fluorescent peptides in live cells was analyzed using a confocal laser scanning microscope (Confocal Zeiss LSM 710) equipped with 40×NA 1.2 water immersion objective. During CLSM analysis the samples were kept at 37° C. in a humidified chamber.
The cells were washed with PBS buffer followed by addition of fresh phenol-free optical medium and live-cell imaging was carried out using a LSM 710 laser scanning confocal microscope equipped with an environmental control module.

24: methylene group stapled dimer of Ub4_ix_S7C, —S—CH2—S— bridge ({CH2CO}-WLYLDDCGDWWICG; thioether N-13 (inferred); also: dimer: Cys7 joined to Cys7 of second copy by -S-CH2-S- bridge) [compound 24]
change in the relative fluorescence signal compared to Ub4_ix (improved binding) (biotin-tetra-UbK48): ~57% | early- and late stage apoptosis compared to Ub4_ix (HeLa cells [1]; HeLa cells, Annexin V/PI, 24 or 48 h): increased early- and late stage apoptosis | induction of cell death (HeLa cells [1]; Hela cells, 24- and 48-hours incubation): able to induce cell death

CC[C@H](C)[C@@H]1NC(=O)[C@H](Cc2c[nH]c3ccccc23)NC(=O)[C@H](Cc2c[nH]c3ccccc23)NC(=O)[C@H](CC(=O)O)NC(=O)CNC(=O)[C@H](CSCSC[C@@H]2NC(=O)[C@H](CC(=O)O)NC(=O)[C@H](CC(=O)O)NC(=O)[C@H](CC(C)C)NC(=O)[C@H](Cc3ccc(O)cc3)NC(=O)[C@H](CC(C)C)NC(=O)[C@@H](Cc3c[nH]c4ccccc34)NC(=O)CSC[C@@H](C(=O)NCC(=O)N[C@@H](C)C(=O)N[C@@H](CSC3CC(=O)N(c4ccc5c(c4)C(=O)OC54c5ccc(O)cc5Oc5cc(O)ccc54)C3=O)C(N)=O)NC(=O)[C@H]([C@@H](C)CC)NC(=O)[C@H](Cc3c[nH]c4ccccc34)NC(=O)[C@H](Cc3c[nH]c4ccccc34)NC(=O)[C@H](CC(=O)O)NC(=O)CNC2=O)NC(=O)[C@H](CC(=O)O)NC(=O)[C@H](CC(=O)O)NC(=O)[C@H](CC(C)C)NC(=O)[C@H](Cc2ccc(O)cc2)NC(=O)[C@H](CC(C)C)NC(=O)[C@@H](Cc2c[nH]c3ccccc23)NC(=O)CSC[C@@H](C(=O)NCC(=O)N[C@@H](C)C(=O)N[C@@H](CSC2CC(=O)N(c3ccc4c(c3)C(=O)OC43c4ccc(O)cc4Oc4cc(O)ccc43)C2=O)C(N)=O)NC1=O (some centres unmarked) [peptide 30] (I: {CH2CO}-[dW]LYLDDCGDWWICGAC(Fluorescein(5-Mal))-NH2 / II: {CH2CO}-[dW]LYLDDCGDWWICGAC(Fluorescein(5-Mal))-NH2; linker I:7-II:7 via CH2; thioether I:N-I:13, II:N-II:13)
Kd (tetra-Ub K48): 12.3 ± 1.26 nM | cellular uptake / permeability and localization (HeLa cells [2]): permeability and cytosolic localization | cellular uptake / permeability and localization (HeLa cells [2]; listed as (Ub4_ix_S7C)2CH2-FITC): quickly and efficiently distributed within cells

Ub4_ix_S7A: Ub4_ix analogue from Alanine scan, position 7 Ala; likely WLYLDDAGDWWICG (SEQ ID NO: 5) ({CH2CO}-WLYLDDAGDWWICG; thioether N-13 (inferred))
change in the relative fluorescence signal compared to Ub4_ix (improved binding) (biotin-tetra-UbK48): ~13%

peptide 23: disulfide bond containing dimeric cyclic peptide of Ub4_ix_S7C ({CH2CO}-WLYLDDCGDWWICG; thioether N-13 (inferred); also: dimer joined by disulfide bond, places not given here)
change in the relative fluorescence signal compared to Ub4_ix (improved binding) (biotin-tetra-UbK48): ~70%
